“And” between values parts separate entries of the source, which are not always exact repeats. Identical values can stand only once.
Legend:
Sec61 = target: T1, Sec61 (Homo sapiens, UniProt P61619); test: cell-based; assay type: cell-based
T1 construct: endogenous in cells

[1] = tested on: mouse skin inflammation model; parameters: method as in PMID 26019221; details: at its maximum tolerated dose; cited from earlier work

T1 sequence (P61619 whole entry): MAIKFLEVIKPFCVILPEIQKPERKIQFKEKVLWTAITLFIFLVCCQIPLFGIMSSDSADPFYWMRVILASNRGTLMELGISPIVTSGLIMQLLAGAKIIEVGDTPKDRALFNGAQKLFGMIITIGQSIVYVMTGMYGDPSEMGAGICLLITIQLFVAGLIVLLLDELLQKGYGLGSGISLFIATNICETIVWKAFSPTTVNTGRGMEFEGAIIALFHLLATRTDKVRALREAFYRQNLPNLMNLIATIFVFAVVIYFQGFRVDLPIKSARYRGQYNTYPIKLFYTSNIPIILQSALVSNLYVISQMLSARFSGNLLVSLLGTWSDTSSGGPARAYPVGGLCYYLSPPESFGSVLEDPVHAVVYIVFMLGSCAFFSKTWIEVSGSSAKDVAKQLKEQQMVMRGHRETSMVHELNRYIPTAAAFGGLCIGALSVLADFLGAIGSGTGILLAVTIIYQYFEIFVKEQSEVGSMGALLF
T1 sequence (P60059 whole entry, further chain): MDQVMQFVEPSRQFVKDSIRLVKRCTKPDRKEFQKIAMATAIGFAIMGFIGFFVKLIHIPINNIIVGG
T1 sequence (P60468 whole entry, further chain): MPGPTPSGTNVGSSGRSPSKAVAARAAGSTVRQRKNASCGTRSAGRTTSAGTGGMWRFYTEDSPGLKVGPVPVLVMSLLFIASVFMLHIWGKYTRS

mycolactone A/B
potency against VCAM-GLuc relative to pPL-GLuc (Sec61; HEK293T, 24 h): equipotent | secreted luciferase activity (% of no-drug control) (Sec61; VCAM signal peptide, Drug nM (log10) 0.18303): 91.1752% and 96.3566% and 105.08% and 96.2111% | secreted luciferase activity (% of no-drug control) (Sec61; VCAM signal peptide, Drug nM (log10) 0.660151): 60.5653% and 60.6911% and 72.2191% and 65.68% | secreted luciferase activity (% of no-drug control) (Sec61; VCAM signal peptide, Drug nM (log10) 1.13727): 69.7373% and 62.7916% and 84.5753% and 63.8152% | secreted luciferase activity (% of no-drug control) (Sec61; VCAM signal peptide, Drug nM (log10) 1.61439): 23.3051% and 17.9704% and 24.3586% and 17.2696% | secreted luciferase activity (% of no-drug control) (Sec61; VCAM signal peptide, Drug nM (log10) 2.09151): 9.614% and 7.324% and 15.2923% and 7.158% | secreted luciferase activity (% of no-drug control) (Sec61; VCAM signal peptide, Drug nM (log10) 2.56864): 5.834% and 4.881% and 8.3778% and 4.722% | secreted luciferase activity (% of no-drug control) (Sec61; VCAM signal peptide, Drug nM (log10) 3.04576): 4.831% and 3.708% and 6.049% and 3.853% | secreted luciferase activity (% of no-drug control) (Sec61; VCAM signal peptide, Drug nM (log10) 3.52288): 3.813% and 3.595% and 4.497% and 3.349% | secreted luciferase activity (% of no-drug control) (Sec61; VCAM signal peptide, Drug nM (log10) 4): 4.399% and 3.701% and 4.702% and 3.31% | secreted luciferase activity (% of no-drug control) (Sec61; VCAM signal peptide, Drug nM (log10) -0.29409): 91.3897% and 90.48% and 98.9457% and 92.5099% | secreted luciferase activity (% of no-drug control) (Sec61; pPL signal peptide, Drug nM (log10) 0.18303): 96.941% and 113.105% and 106.161% and 90.9819% | secreted luciferase activity (% of no-drug control) (Sec61; pPL signal peptide, Drug nM (log10) 0.660151): 87.4346% and 105.37% and 92.2325% and 88.4507% | secreted luciferase activity (% of no-drug control) (Sec61; pPL signal peptide, Drug nM (log10) 1.13727): 90.1482% and 100.766% and 90.4471% and 85.7727% | secreted luciferase activity (% of no-drug control) (Sec61; pPL signal peptide, Drug nM (log10) 1.61439): 34.1743% and 36.4459% and 25.7816% and 32.3021% | secreted luciferase activity (% of no-drug control) (Sec61; pPL signal peptide, Drug nM (log10) 2.09151): 11.7024% and 15.7348% and 12.066% and 11.9677% | secreted luciferase activity (% of no-drug control) (Sec61; pPL signal peptide, Drug nM (log10) 2.56864): 10.1212% and 10.0148% and 7.898% and 9.649% | secreted luciferase activity (% of no-drug control) (Sec61; pPL signal peptide, Drug nM (log10) 3.04576): 5.549% and 7.948% and 6.334% and 6.2294% | secreted luciferase activity (% of no-drug control) (Sec61; pPL signal peptide, Drug nM (log10) 3.52288): 4.849% and 7.368% and 5.461% and 6.2207% | secreted luciferase activity (% of no-drug control) (Sec61; pPL signal peptide, Drug nM (log10) 4): 4.167% and 6.905% and 5.234% and 5.9772% | secreted luciferase activity (% of no-drug control) (Sec61; pPL signal peptide, Drug nM (log10) -0.29409): 102.214% and 111.849% and 98.9284% and 92.0234% | efficacy in mouse skin inflammation model [1]: modest efficacy

Source: article PMC10449633 (Nature Chemical Biology, 2023)
